Values quoted from earlier work, collected in patent US20100086592A1, “MODIFIED DOSAGE FORMS OF TACROLIMUS” (PANACEA BIOTEC LIMITED., priority 2007, published 2010).
Read-outs that look alike come from different tables or passages of the source.

Details: oral

Q: Which results are given for `C=CC[C@@H]1/C=C(\C)C[C@H](C)C[C@H](OC)[C@H]2O[C@@](O)(C(=O)C(=O)N3CCCC[C@H]3C(=O)O[C@H](/C(C)=C/[C@@H]3CC[C@@H](O)[C@H](OC)C3)[C@H](C)[C@@H](O)CC1=O)[C@H](C)C[C@@H]2OC` [tacrolimus, Tacrolimus]?
A: absolute bioavailability (adult heart transplantation patients (N=11)): 23±9%; absolute bioavailability (adult liver transplant patients (N=17)): 22±6%; absolute bioavailability (healthy volunteers (N=16)): 18±5%
